Measurements taken from article PMC12291762 (Antioxidants, 2025).

Assays:
COX-1 and COX-2 = details: cited from earlier work
[1] = test system: systemic oxidative stress parameters; assay: Systemic redox state (plasma, erythrocyte lysate) 24 h after carrageenan; format: in vivo, Wistar albino rats
Experimental: (§1) Following 24 h of carrageenan-induced paw edema inflammation model and intraperitoneal anesthesia induced by ketamine/xylazine (100/10 mg/kg of BW), the animals were sacrificed, while whole-blood samples and edema-affected paw tissues were isolated. After centrifugation of whole blood, plasma and erythrocyte lysate samples were separated for further examination of the applied compounds’ effects on the systemic redox balance state. Pro-oxidative markers including superoxide anion radical (O2∙^−), hydrogen peroxide (H2O2) nitrites (NO2^−), and index of lipid peroxidation measured as thiobarbituric acid (TBA) reactive substances (TBARS) were determined from plasma samples, while the antioxidant capacity, including superoxide dismutase (SOD) and catalase (CAT) activity, as well as the reduced glutathione (GSH) level were examined in erythrocyte lysate samples [46]. […] Edema-affected paw tissue samples were weighed (100 mg) and homogenized (OmniPrep™ multi-sample homogenizer, Omni International, Kennesaw, GA, USA) in 900 µL phosphate buffer on ice (pH = 7.4), and centrifuged at 12,000 rpm for 20 min. These supernatant samples were used for the determination of the aforementioned pro-oxidative and antioxidative parameters levels. All oxidative stress analyses were performed spectrophotometrically using a Shimadzu UV 1800 spectrophotometer (Kyoto, Japan).
(§2) Determination of the O2∙^− level was conducted by adding 950 µL of a Nitro Blue Tetrazolium (NBT) mixture with TRIS buffer in 50 µL of sample, measured at the 550 nm wavelength. The level of H2O2 was determined during the oxidation of phenol red by H2O2, which was catalyzed with horseradish peroxidase and measured at the 610 nm wavelength. Indirect measurement of nitrites was performed by the precipitation of samples with 30% sulfo-salicylic acid, followed by vortexing and centrifugation at 3000 rpm for 15 min. The equal volumes of isolated supernatant and Griess’ reagent (containing 1% sulfanilamide in 5% phosphoric acid/0.1% naphthalene ethylenediamine-dihydrochloride) were incubated for 10 min and measured at the 550 nm wavelength. The TBARS concentration was determined by adding 400 µL of sample to 200 µL of TBA in 0.05 M NaOH, followed by 15 min incubation at 100 °C. Measurement was performed at the 530 nm wavelength.
(§3) The epinephrine method was used for SOD determination. By adding 100 µL of sample, the same volume of epinephrine, and 1000 µL of carbonate buffer, the measurement was performed at the 470 nm wavelength. The determination of CAT activity was based on the preparation of a mixture containing 100 µL of sample, 50 µL of catalase buffer, and 1000 µL of 10 mM H2O2, which was measured at the 230 nm wavelength.

[2] = test system: local oxidative stress parameters; assay: Local redox state (edema-affected paw tissue homogenate) 24 h after carrageenan; format: in vivo, Wistar albino rats; details: inflamed paw tissue
Experimental: as §1, §2, §3

COX-1 = target: T1, COX-1 (Ovis aries, UniProt P05979); assay: Fluorometric COX-1 inhibitor screening kit; format: biochemical; parameters: purchased Abcam ab204698; details: mean ± standard error, three independent measurements
T1 sequence (P05979 25-600): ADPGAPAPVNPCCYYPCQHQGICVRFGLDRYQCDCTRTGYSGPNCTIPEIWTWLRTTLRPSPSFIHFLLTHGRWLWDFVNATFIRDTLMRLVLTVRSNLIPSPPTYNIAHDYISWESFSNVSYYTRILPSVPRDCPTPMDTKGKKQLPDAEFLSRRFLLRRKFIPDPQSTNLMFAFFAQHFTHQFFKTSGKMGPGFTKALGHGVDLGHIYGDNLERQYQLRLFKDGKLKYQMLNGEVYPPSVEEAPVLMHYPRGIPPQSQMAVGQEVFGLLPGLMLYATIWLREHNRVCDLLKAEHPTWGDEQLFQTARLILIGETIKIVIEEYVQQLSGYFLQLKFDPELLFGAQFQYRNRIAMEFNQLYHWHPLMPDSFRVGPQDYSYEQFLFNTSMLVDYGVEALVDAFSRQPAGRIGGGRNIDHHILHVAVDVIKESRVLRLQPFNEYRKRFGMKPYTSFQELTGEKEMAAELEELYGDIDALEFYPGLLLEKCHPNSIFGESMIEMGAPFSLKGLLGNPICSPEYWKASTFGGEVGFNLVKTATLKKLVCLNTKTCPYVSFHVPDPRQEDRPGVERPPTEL
Experimental: The inhibitory activity of the tested compounds against COX-1 and COX-2 isoforms was assessed using fluorometric cyclooxygenase inhibitor screening kits (Catalog Numbers ab204698 and ab283401, respectively; Abcam, Cambridge, UK). These assays detect the formation of prostaglandin G2, a product of COX enzymatic activity, via fluorometric measurement.
Stock solutions of the test compounds were prepared at a concentration of 5 mM in DMSO and subsequently diluted with the same solvent to obtain the test solutions. For the assay preparation, 2 μL of each test solution was diluted with 8 μL of COX assay buffer. The solvent control (SC) consisted of 2 μL of DMSO and 8 μL of assay buffer, while the enzyme control (EC) contained 10 μL of assay buffer alone. Sample wells (S) received 10 μL of the diluted test solutions. All other steps were in accordance with the manufacturer’s protocol and the previously published article. […] The percentage of inhibition was calculated as follows:(3) % Relative Inhibition=Slope of EC−Slope of S/Slope of EC×100
Fluorescence measurements were conducted on a BioTek Synergy LX multi-mode reader (Winooski, VT, USA).

Row | SMILES | Times lower COX inhibitory capacity than dexketoprofen (COX-1 and COX-2) | Systemic CAT activity compared to Sol (untreated) rats ([1]; erythrocyte lysate) | Systemic GSH level compared to untreated rats ([1]; erythrocyte lysate) | Systemic SOD activity compared to Sol (untreated) rats ([1]; erythrocyte lysate) | Systemic H2O2 level compared to solvent rats ([1]; plasma) | Systemic O2∙− level compared to untreated (Sol) rats ([1]; plasma) | Systemic TBARS level compared to Sol (untreated) rats ([1]; plasma) | Local O2∙− concentration compared to untreated rats [2] | Local SOD activity compared to untreated (negative control) rats [2] | Local nitrites level (reduction, p < 0.05) ([2]; comparator not given) | IC50 (COX-1)
1 | C[C@@H](C(=O)O)c1cccc(C(=O)c2ccccc2)c1 [(R)-ketoprofen] | 100 to 1000 times | – | – | – | – | – | – | – | – | – | –
2 | C[C@H](C(=O)O)c1cccc(C(=O)c2ccccc2)c1 [Dexketoprofen, reference compound] | – | significantly reduced activity of SOD and CAT, as well as the GSH level, in untreated rats compared to Dex | significantly reduced activity of SOD and CAT, as well as the GSH level, in untreated rats compared to Dex | significantly reduced activity of SOD and CAT, as well as the GSH level, in untreated rats compared to Dex | significantly lower | significantly lower | significantly decreased | significantly decreased | remarkably improved | markedly reduced | 1.5 ± 0.6 nM
